# According to US8314138B2, “Pyrazole derivative as SCD1 inhibitors for the treatment of diabetes” (Novartis AG, priority 2006, dated 2012):
# Target: T1, stearoyl-CoA desaturase (SCD1) (Mus musculus, UniProt P13516)
# T1 construct: Male ICR outbread mice, on a high-carbohydrate, low fat diet; from tissue; host or cells: liver microsomes of male ICR mice on a high-carbohydrate, low fat diet
# T1 sequence (P13516 1-355): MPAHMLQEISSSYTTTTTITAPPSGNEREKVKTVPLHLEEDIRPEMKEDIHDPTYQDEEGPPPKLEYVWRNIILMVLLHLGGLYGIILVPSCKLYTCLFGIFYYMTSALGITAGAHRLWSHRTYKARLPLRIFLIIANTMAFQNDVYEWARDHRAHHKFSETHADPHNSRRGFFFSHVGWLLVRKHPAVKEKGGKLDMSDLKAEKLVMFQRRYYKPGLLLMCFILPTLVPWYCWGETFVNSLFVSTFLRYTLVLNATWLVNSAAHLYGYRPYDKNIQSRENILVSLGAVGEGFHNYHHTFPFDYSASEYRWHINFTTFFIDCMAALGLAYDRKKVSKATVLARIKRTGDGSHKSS
# Assay: SCD microsomal assay: release of 3H2O from [9,10-3H]stearoyl-CoA in mouse liver microsomes
# Type: biochemical
# Conditions: 15 min incubation, 25° C.
# Description: The identification of compounds of the invention as SCD inhibitors was readily accomplished using the SCD enzyme and microsomal assay procedure described in Shanklin J. and Summerville C., Proc. Natl. Acad. Sci. USA (1991), Vol. 88, pp. 2510-2514.
# Measuring Stearoyl-CoA Desaturase Inhibition Activity of a Test Compound Using Mouse Liver Microsomes
# The identification of compounds of the invention as SCD inhibitors was readily accomplished using the SCD microsomal assay procedure described in Shanklin J. and Summerville C., Proc. Natl. Acad. Sci. USA (1991), Vol. 88, pp. 2510-2514, which is incorporated herein by reference in its entirety.
# Preparation of Mouse Liver Microsomes:
# Male ICR outbread mice, on a high-carbohydrate, low fat diet, under light halothane (15% in mineral oil) anesthesia are sacrificed by exsanguination during periods of high enzyme activity. Livers are immediately rinsed with cold 0.9% NaCl solution, weighed and minced with scissors. All procedures are performed at 4° C. unless specified otherwise. Livers are homogenized in a solution (1/3 w/v) containing 0.25 M sucrose, 62 mM potassium phosphate buffer (pH 7.0), 0.15 M KCl, 15 mM N-acetylcysteine, 5 mM MgCl2, and 0.1 mM EDTA using 4 strokes of a Potter-Elvehjem tissue homogenizer. The homogenate is centrifuged at 10,400×g for 20 min to eliminate mitochondria and cellular debris. The supernatant is filtered through a 3-layer cheesecloth and centrifuged at 105,000×g for 60 min. The microsomal pellet is gently resuspended in the same homogenization solution with a small glass/teflon homogenizer and stored at −70° C. The absence of mitochondrial contamination is enzymatically assessed. The protein concentration is measured using bovine serum albumin as the standard.
# Incubation of Mouse Liver Microsomes with Test Compounds:
# Desaturase activity is measured as the release of ^3H2O from [9,10-^3H]stearoyl-CoA. Reactions per assay point conditions are as follows: 2 μL 1.5 mM stearoyl-CoA, 0.25 μL 1 mCi/mL ^3H stearoyl CoA, 10 μL 20 mM NADH, 36.75 μL 0.1 M PK buffer (K2HPO4/NaH2PO4, pH 7.2). The test compound or control solution is added in a 1 μL volume. Reactions are started by adding 50 μL of microsomes (1.25 mg/mL). The plates are mixed and after 15 min incubation on a heating block (25° C.), the reactions are stopped by the addition of 10 μL 60% PCA. An aliquot of 100 μL is then transferred to a filter plate pretreated with charcoal and the plate centrifuged at 4000 rpm for 1 minute. The flow through containing the ^3H2O released by the SCD1 desaturation reaction is added to scintillation fluid and the radioactivity measured in a Packard TopCount. The data is analyzed to identify the IC50 for test compounds and reference compounds. […] The activity was defined in terms of % SCD enzyme activity remaining at the desired concentration of the test compound or as the IC50 concentration. The IC50 (affinity) of the example compounds toward the stearoyl-CoA desaturase is comprised between around 20 μM and 0.0001 μM or between around 5 μM and 0.0001 μM or between around 1 μM and 0.0001 μM.
row,SMILES,IC50 [nM]
1,"COc1ccc(CN(C)c2cncc(-c3nc(C)c(C(=O)NCc4ccc(F)cc4)s3)n2)cc1 [Example 22, 2-{6-[(4-methoxy-benzyl)-methyl-amino]-pyrazin-2-yl}-4-methyl-thiazole-5-carboxylic acid 4-fluoro-benzylamide]",98
2,"Cc1nc(-c2ccn(Cc3ccc(S(C)(=O)=O)cc3)n2)sc1C(=O)NCc1cccnc1 [Example 66, 2-[1-(4-methanesulfonyl-benzyl)-1H-pyrazol-3-yl]-4-methyl-thiazole-5-carboxylic acid (pyridin-3-ylmethyl)amide]",172
3,"Cc1nc(-c2ccn(CCC3CC3)n2)sc1C(=O)NCc1ccc(F)cc1 [Example 85, 2-[1-(2-cyclopropyl-ethyl)-1H-pyrazol-3-yl]-4-methyl-thiazole-5-carboxylic acid 4-fluoro-benzylamide]",147
4,"COc1ccc(CCn2ccc(-c3nc(C)c(C(=O)NCc4ccc(F)cc4)s3)n2)cc1 [Example 87, 2-{1-[2-(4-Methoxy-phenyl)-ethyl]-1H-pyrazol-3-yl}-4-methyl-thiazole-5-carboxylic acid 4-fluoro-benzylamide]",96

# Further lines, results first:
row,IC50 [nM],SMILES
1,42,"Cc1nc(-c2cncc(CCc3ccccc3)n2)sc1C(=O)NCc1ccccc1 [Example 4, 4-methyl-2-(6-phenethyl-pyrazin-2-yl)-thiazole-5-carboxylic acid benzylamide]"
2,164,"Cc1nc(-c2cncc(N(C)CCCc3ccccc3)n2)sc1C(=O)NCc1ccc(F)cc1 [Example 16, 4-methyl-2-{6-[methyl-(3-phenyl-propyl)-amino]-pyrazin-2-yl}-thiazole-5-carboxylic acid 4-fluoro-benzylamide]"
3,124,"Cc1nc(-c2cncc(N(C)Cc3ccc(F)cc3)n2)sc1C(=O)NCc1ccccc1 [Example 29, 2-{6-[(4-fluoro-benzyl)-methyl-amino]-pyrazin-2-yl}-4-methyl-thiazole-5-carboxylic acid benzylamide]"
4,71,"Cc1nc(-c2ccn(CCCc3ccccc3)n2)sc1C(=O)NCc1ccccc1 [Example 37, 4-methyl-2-[1-(3-phenyl-propyl)-1H-pyrazol-3-yl]-thiazole-5-carboxylic acid benzylamide]"
5,74,"Cc1nc(-c2ccn(Cc3ccc(C#N)cc3)n2)sc1C(=O)NCc1cccnc1 [Example 52, 2-[1-(4-cyano-benzyl)-1H-pyrazol-3-yl]-4-methyl-thiazole-5-carboxylic acid (pyridin-3-ylmethyl)amide]"
6,49,"Cc1nc(-c2ccn(CCN(C)c3ccccc3)n2)sc1C(=O)NCc1cccnc1 [Example 79, 4-methyl-2-{1-[2-(methyl-phenylamino)-ethyl]-1H-pyrazol-3-yl}-thiazole-5-carboxylic acid (pyridin-3-ylmethyl)amide]"
